PubChem BioAssay (NCI)
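A five-concentration, 48-hour dose response in 96-well plates underlies each endpoint, interpolated linearly between surrounding concentrations. At the GI50, growth is halved. The concentration for full growth arrest is given as TGI.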

Key:
Assay in all cases: inhibition of tumour cell growth, NCI panel, 48 h
CAKI-1 renal = tested on: CAKI-1 renal
SW-620 colon = tested on: SW-620 colon
COLO 205 colon = tested on: COLO 205 colon
SF-268 CNS = tested on: SF-268 CNS
OVCAR-4 ovarian = tested on: OVCAR-4 ovarian
M14 melanoma = tested on: M14 melanoma
786-0 renal = tested on: 786-0 renal
MOLT-4 leukemia = tested on: MOLT-4 leukemia
SF-539 CNS = tested on: SF-539 CNS
SK-MEL-28 melanoma = tested on: SK-MEL-28 melanoma

Row | SMILES | TGI (CAKI-1 renal) [µM] | TGI (SW-620 colon) [µM] | TGI (COLO 205 colon) [µM] | TGI (SF-268 CNS) [µM] | TGI (OVCAR-4 ovarian) [µM] | TGI (M14 melanoma) [µM] | TGI (786-0 renal) [µM] | TGI (MOLT-4 leukemia) [µM] | TGI (SF-539 CNS) [µM] | TGI (SK-MEL-28 melanoma) [µM] | GI50 (CAKI-1 renal) [µM] | GI50 (SW-620 colon) [µM] | GI50 (COLO 205 colon) [µM] | GI50 (SF-268 CNS) [µM] | GI50 (OVCAR-4 ovarian) [µM] | GI50 (M14 melanoma) [µM] | GI50 (786-0 renal) [µM] | GI50 (MOLT-4 leukemia) [µM] | GI50 (SF-539 CNS) [µM] | GI50 (SK-MEL-28 melanoma) [µM]
1 | C1CCN(C2OC3C(COC3N3CCCCC3)OC2OC2CCO[C@@H]2N2CCCCC2)CC1 (stereo not given in full) | > 100 | > 100 | > 100 | > 100 | > 100 | > 100 | > 100 | 84.7 | 46.8 | > 100 |  |  |  |  |  |  |  |  |  | 
2 | Cc1occc1C(=S)Nc1ccc(Cl)c(/C=N/OC(C)C)c1 | 40.9 | 52.3 | 37 | > 62.2 | > 59.7 | 57.9 | 43.8 | > 57.6 | 32.9 | > 56.4 |  |  |  |  |  |  |  |  |  | 
3 | COc1ccc2c(c1)CCc1[nH]c3ccccc3c1CCCC2 | > 10 | > 10 | > 10 | > 10 | > 10 | > 10 | > 10 | > 10 | > 10 | > 10 |  |  |  |  |  |  |  |  |  | 
4 | O=C(CC12CC3CC(CC(C3)C1)C2)NCCOCCOCCOCCNC(=O)c1cc2c(o1)C(=O)c1ccccc1C2=O | 5.74 | 4.61 | 3.33 | 5.59 | 2.33 | 0.491 | 8.87 | 6.22 | 2.78 | 3.27 | 1.93 | 1.68 | 1.63 | 2.17 | 1.12 | 0.222 | 2.55 | 2.02 | 1.44 | 1.7
5 | Nc1ncn(C2C=C(CO)C(O)C2O)c(=O)n1 (stereo not given) | > 100 | > 100 | 74.2 | > 100 | > 100 | > 100 | > 100 | > 100 | > 100 | > 100 |  |  |  |  |  |  |  |  |  | 
6 | COc1ccc(C(=O)OC2C=COC(C)C2OC(=O)c2ccc(OC)cc2)cc1 (stereo not given) | > 100 | 35.1 | > 100 | 44.7 | > 63.2 | 35.9 | > 86.6 | 56 | 33.6 | 33.2 |  |  |  |  |  |  |  |  |  | 
7 | CC[O-].CC[O-].O=C1C(c2ccccc2)=C([O-])c2ccccc21.O=C1C(c2ccccc2)=C([O-])c2ccccc21.[Ti+4] | > 100 | > 100 | > 100 | > 100 | > 100 | > 100 | > 100 | > 100 | > 100 | > 100 | > 100 | > 100 | > 100 | > 100 | > 100 | > 100 | > 100 | > 100 | > 100 | > 100
8 | COc1cc2c(Oc3ccc4[nH]c(C)cc4c3F)ccnc2cc1OCC1(N)CC1 | 6.99 | 11.8 | 5.61 | 12.9 | > 100 | 2.53 | 3.46 | 14 | 1.81 | 2.95 | 1.04 | 0.757 | 2.29 | 1.39 | 4.22 | 1.02 | 1.02 | 0.971 | 0.315 | 1.41
9 | Cc1cc2cc3c(C)cc(=O)oc3c(C)c2o1 | > 100 | > 100 | > 100 | > 100 | > 100 | > 100 | > 100 | > 100 | > 100 | > 100 |  |  |  |  |  |  |  |  |  | 
10 | CC1(C)CC(n2cnc(-c3ccc(F)cc3)c2-c2ccnc(N)n2)CC(C)(C)N1 | > 25 | > 25 | > 25 | > 25 | > 25 | > 25 | > 25 | > 25 | > 25 | > 25 | > 25 | 12.1 | 12.7 | 18.7 | 7.54 | > 25 | > 25 | 17.4 | > 25 | > 25
11 | c1ccc2c(c1)-c1ccccc1C2N1CC2CCC(CC2)C1 | > 100 | 49.1 | 38.1 | 37.8 | > 100 | 75.4 | > 100 | 28.2 | 48.9 | 96.1 |  |  |  |  |  |  |  |  |  | 
12 | O=c1[nH]ccc2nc(N3CCC(O)CC3)nc(Nc3cccc(C(F)(F)F)c3)c12 | 6.3 | 12.9 | 14.5 | 35.3 | 36.4 | 8.23 | > 100 | 7.75 | 38.6 | 17.4 | 0.282 | 1.91 | 3.08 | 3.06 | 1.73 | 1.55 | 2.06 | 2.24 | 5.19 | 4.63
13 | O=c1[nH]c2c3ccccc3ccc2c2cc3c(cc12)OCO3 | > 100 | > 100 | > 100 | > 100 | > 100 | > 100 | > 100 | > 100 | > 100 | > 100 |  |  |  |  |  |  |  |  |  | 
14 | O=C(Nc1ccc(F)cc1)C(=O)C(C1OC(=O)c2ccccc21)[N+](=O)[O-] (stereo not given) | > 100 | > 100 | > 100 | > 100 | > 100 | > 100 | > 100 | > 100 | > 100 | > 100 |  |  |  |  |  |  |  |  |  | 
15 | O=C([O][Hg][CH2]C1COCC([CH2][Hg][O]C(=O)c2ccccc2)O1)c1ccccc1 (stereo not given) | 3.21 | 3.32 | 3.55 | 30.7 | 49.6 | 19.9 | 30.5 | 12.5 | 51.8 | 19.6 | 1.61 | 1.54 | 1.88 | 16.6 | 14.4 | 6.01 | 16.8 | 2.96 | 23.7 | 6.86
16 | COc1cccc(-c2nc3sccn3c2-c2ccnc(NCCNS(=O)(=O)c3ccccc3)c2)c1 | > 100 | > 100 | 18.2 | > 100 | > 100 | > 100 | > 100 | > 100 | > 100 | > 100 | 1.42 | 4.3 | 1.87 | 3.54 | 2.09 | 2.84 | 4 | 2.03 | 4.98 | 5.13
